Measurements: patent publication US20250049914A1, “STEROID ACID-PEPTIDE BASED INTRACELLULAR CARGO DELIVERY” (DEFENCE THERAPEUTICS INC., priority 2021, published 2025)
Where no end group is shown, it is not given here.

What was measured:
[1] = tested on: cross-presenting mesenchymal stromal cell line (cpMSC); assay: Antigen-presentation assay using the B3Z reporter system, cross-presenting MSC line; format: cell-based; conditions: cpMSCs, OVA admixed, vs OVA alone or OVA mixed with CA-SV40NLS
Description: (§1) Various bile acid-NLS conjugates were screened using the B3Z reporter system. The B3Z cell line is a T-cell hybridoma specific for the H2-K^b-[…] complex. Once activated via its TCR, the LacZ reporter gene (under the NFAT promoter control) is expressed. Briefly, 1.5×10^5 BMDCs or 2.5×10^5 MSCs were co-cultured with 5×10^4 B3Z cells treated with the mixing conditions of ovalbumin (OVA) and bile acid-NLS conjugates for overnight at 37° C. with 5% CO2. The following day, all cells were washed twice with PBS (pH 7.4), and the cell pellets were lysed by adding 100 μL of a lysis buffer containing 0.15 mM chlorophenol red-beta-D-galactopyranoside (CPRG) substrate (Calbiochem, La Jolla, CA), 0.125% NP40 (EMD Sciences, La Jolla, CA), 9 mM MgCl2 (Aldrich, USA) and 100 mM 2-mercaptoethanol in PBS. After a 5- or 24-h incubation at 37° C., absorbance was taken at 570 nm with 636 nm as the reference wavelength. For these experiments, OVA was re-suspended in PBS (pH 7.3) at 5-10 mg/mL. The different bile acid-NLS conjugates were re-suspended in H2O at 10 mg/mL. Bile acid-NLS conjugate: antigen mixtures were prepared at different molar ratios according to Table 1.
(§2) Further variants of CA-SV40NLS were synthesized in which the SV40NLS peptide was replaced with peptides comprising other NLS's (Table 5) and the antigen presentation activities of the CA-NLS peptide conjugates were evaluated using the B3Z reporter system as described in Example 1. The following conjugate: antigen molar ratios were tested for each conjugate: 2:1, 4:1, 8:1, 12:1 and 22:1. The results in FIGS. 12-15 compare the antigen presentation activities of different conjugates at the conjugate: antigen ratio that yielded the highest B3Z response (OD570) for that conjugate.

[2] = tested on: JIMT-1 cells; assay: Cas9-GFP delivery with Lipofectamine CRISPRMAX transfection reagent; format: cell-based
Description: To assess whether the enhanced intracellular delivery conferred by bile acid-NLS moieties is compatible with other delivery technologies, a delivery experiment in JIMT-1 cells was performed using Lipofectamine™ CRISPRMAX™ Cas9 Transfection Reagent (Thermo Fisher Scientific) according to the manufacturer's protocol, except that the cargo was Cas9-GFP alone or conjugated to/mixed with different bile acid-NLS moieties. The results are shown in Table 3 with GFP fluorescence values being normalized to that of cells incubated with the unconjugated cargo/transfection reagent alone (Cas9-GFP alone). […] Fluorescence microscopy experiments in live cells confirmed that the Cas9-GFP cargoes were successfully delivered to the nucleus of JIMT-1 cells (data not shown).

[3] = tested on: BMDCs; assay: Antigen-presentation assay using the B3Z reporter system, BMDCs; format: cell-based, mouse; conditions: BMDCs, OVA admixed, best conjugate: antigen ratio
Description: Mouse bone marrow derived DCs (BMDCs) were generated by flushing the whole marrow from mouse femurs using RPMI™ 1640 supplemented with 10% fetal bovine serum (FBS), 50 U/mL Penicillin-Streptomycin, 2 mM L-glutamine, 10 mM HEPES, 1% MEM Non-essential Amino Acids, 1 mM Sodium Pyruvate, 0.5 mM beta-mercaptoethanol. Following red blood cell lysis, cells were then cultured in media supplemented with 50 ng/mL murine recombinant GM-CSF. The media was changed on days 2, 4, 6 and 8. On day 9, the media was replaced to include recombinant murine GM-CSF and LPS from Escherichia coli 0111 (1 ng/mL) to stimulate DC maturation. Mature DCs were assessed by flow cytometry for their surface expression of CD3, CD19, NK1.1, CD11c, CD80, CD86, and I-A^b.
as §1
Variants of CA-SV40NLS were synthesized in order to explore structure-activity relationships relating to the antigen cross-presentation enhancing activity observed for this conjugate, and therefore a measure of antigen/cargo delivery. More particularly, conjugates having different bile acids conjugated to the SV40NLS peptide (SEQ ID NO: 1) were synthesized and their effect on antigen presentation was evaluated by using the B3Z reporter system with the OVA antigen as described in Example 1. […] In FIG. 11, no increase in antigen cross-presentation in BMDCs over the antigen alone (“OVA”) was observed when OVA was mixed with either unconjugated cholic acid (“CA”) or SV40NLS peptide (“SV40NLS”), although lower sensitivity of the B3Z reporter system as compared to the OT-I CD8 T cell-based assay may have been a factor.
as §2

CA-HuR: cholic acid conjugated to HuR NLS peptide CGRFSPMGVDHMSGLSGVNVPG (SEQ ID NO: 13) (not fully specified (N-terminus); also: cholic acid conjugate, site not given here)
antigen-presentation activity of cholic acid-NLS peptide conjugates (B3Z response) [1]: strikingly high antigen-presentation activity | increase in intracellular Cas9-GFP delivery vs Cas9-GFP/transfection reagent alone [2]: 17 fold | antigen-presentation activity of cholic acid-NLS peptide conjugates (B3Z response) [3]: high antigen presentation activity
